Columns and labels:
[1] = system: KMS-12-PE Bcl-2 G101V cells; experiment: In vitro cytotoxicity, CellTiter-Glo cell viability 72 h; assay type: cell-based; conditions: Homo sapiens, read-out: KMS-12-PE Bcl-2 G101V C50
Protocol: (§1) Cell lines were grown at 37° C. in a humidified atmosphere with 5% CO2 in media recommended by the suppliers. RS4;11 (ATCC® CRL1873™) were purchased from American Type Culture Collection (ATCC) and KMS-12-PE (ACC 606) from the Leibniz-Institute DSMZ (Braunschweig, Germany). Lentiviral particles containing Bcl-2 wild-type (also named ‘Bcl-2 VT’) and Bcl-2 mutated on G101V (also named ‘Bcl-2 G101V’) were cloned into pcLV-CMV-DEST-IRES-TagRFP. Lentiviral particles (1×10^6) were mixed with Polybrene at 8 μg/ml and transduced by spinoculation for 1 h at 32° C. and incubated overnight. After 8 days for KMS-12-PE and 21 days for RS4;11, TagRFP positive-cells were sorted by FACS. BCL2 expression was monitored by immunoblotting using anti-Flag and anti-BCL2 antibodies. Cells were seeded into 96-well plates and treated with 1:3.16 serial dilution of compounds (9 different concentrations). […] Results were normalized to the viability of cells without compounds (control wells). The C50 values were calculated using nonlinear regression algorithms in XCell software.

RS4;11 Bcl-2 G101V cells = experiment: as above; assay type: cell-based; conditions: Homo sapiens, read-out: RS4;11 Bcl-2 G101V C50
Protocol: as §1

KMS-12-PE Bcl-2 WT cells = experiment: as above; assay type: cell-based; conditions: Homo sapiens, read-out: KMS-12-PE Bcl-2 WT C50
Protocol: as §1

RS4;11 Bcl-2 WT cells = experiment: as above; assay type: cell-based; conditions: Homo sapiens, read-out: RS4;11 Bcl-2 WT C50
Protocol: as §1

[2] = system: KMS-12-PE Bcl-2 D103Y cells; experiment: In vitro cytotoxicity, CellTiter-Glo cell viability 72 h, Example 5; assay type: cell-based; conditions: Homo sapiens, read-out: KMS-12-PE Bcl-2 D103Y C50
Protocol: Cell lines were grown at 37° C. in a humidified atmosphere with 5% CO2 in media recommended by the suppliers. KMS-12-PE (ACC 606) from the Leibniz-Institute DSMZ (Braunschweig, Germany). Lentiviral particles containing Bcl-2 mutated on D103Y were cloned into pcLV-CMV-DEST-IRES-TagRFP. Lentiviral particles (1×10^6) were mixed with Polybrene at 8 μg/ml and transduced by spinoculation for 1 h at 32° C. and incubated overnight. TagRFP positive-KMS-12-PE cells were sorted by FACS after 8 days. Bcl-2 expression was monitored by immunoblotting using anti-Flag and anti-Bcl-2 antibodies. Cells were seeded into 96-well plates and treated at 9 points with 1:3.16 serial dilution of compounds. […] Results were normalized to the viability of cells without compounds (control wells). The C50 values were calculated using nonlinear Regression algorithms in XCell software.

Bcl-2 Asp103Tyr mutant = Bcl-2 Asp103Tyr mutant (Homo sapiens, UniProt P10415, D103Y); experiment: Fluorescence quenching assay (PUMA quench reagent displacement), Example 4; assay type: binding; conditions: 50 nM peptide, about 2 hours at 18° C., ABT-199 inactive @1 μM
Description: […] […] […] […] […] […] […] […] […] […] […] […] […] […] […] […] […] […] […] […] […] […] […] […] […] […] […]

Chain of Bcl-2 Asp103Tyr mutant (P10415 with tags, fused parts or gaps D103Y): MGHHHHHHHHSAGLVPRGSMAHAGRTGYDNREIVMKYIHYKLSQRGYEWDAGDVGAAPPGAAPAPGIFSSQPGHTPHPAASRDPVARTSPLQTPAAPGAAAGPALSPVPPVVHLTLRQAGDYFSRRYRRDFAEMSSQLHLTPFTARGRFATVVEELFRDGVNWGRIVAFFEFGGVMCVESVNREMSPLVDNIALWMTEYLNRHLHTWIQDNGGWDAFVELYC

Bel-2 Asp103Tyr mutant K1 mean (Bcl-2 Asp103Tyr mutant)	Structure (SMILES)	IC50 [1]	IC50 (RS4;11 Bcl-2 G101V cells)	IC50 (KMS-12-PE Bcl-2 WT cells)	IC50 (RS4;11 Bcl-2 WT cells)	IC50 [2]
inactive	CC1(C)CCC(CN2CCN(c3ccc(C(=O)NS(=O)(=O)c4ccc(NCC5CCOCC5)c([N+](=O)[O-])c4)c(Oc4cnc5[nH]ccc5c4)c3)CC2)=C(c2ccc(Cl)cc2)C1 [ABT-199, Venetoclax, reference compound]	0.931 µM	0.13 µM	0.0225 µM	0.0107 µM	1.83 µM
–	Cc1c(N(C(=O)c2cc(-c3cc(Cl)ccc3C(=O)N3Cc4ccccc4C[C@H]3CN3CCOCC3)n(C)c2C)c2ccc(O)cc2)cc(C#N)n1C [Compound B, 5-(5-chloro-2-{[(3S)-3-(morpholin-4-ylmethyl)-3,4-dihydroisoquinolin-2(1H)-yl]carbonyl}phenyl)-N-(5-cyano-1,2-dimethyl-1H-pyrrol-3-yl)-N-(4-hydroxyphenyl)-1,2-dimethyl-1H-pyrrole-3-carboxamide]	0.179 µM	0.0604 µM	0.021 µM	0.00903 µM	0.0837 µM
–	O=C(c1cc(-c2cc3c(cc2C(=O)N2Cc4ccccc4C[C@H]2CN2CCOCC2)OCO3)n2c1CCCC2)N(c1ccccc1)c1ccc(O)cc1 [Compound A, N-(4-hydroxyphenyl)-3-{6-[((3S)-3-(4-morpholinylmethyl)-3,4-dihydro-2(1H)-isoquinolinyl)carbonyl]-1,3-benzodioxol-5-yl}-N-phenyl-5,6,7,8-tetrahydro-1-indolizine carboxamide]	0.961 µM	0.495 µM	0.0573 µM	0.0823 µM	–

— patent publication US20220211718A1, “BCL-2 INHIBITORS FOR USE IN THE TREATMENT OF A BCL-2 MEDIATED CANCER CARRYING THE GLY101VAL MUTATION” (LES LABORATOIRES SERVIER, priority 2019, published 2022)
